Measurements: patent US8895733B2 (Novartis AG, priority 2010, dated 2014)
pIC50: −log10 of the molar value.

Legend:
Format in all cases: cell-based
[1] = biological target: T1, Nav 1.7 (Homo sapiens, UniProt Q15858); assay: Whole-cell voltage clamp electrophysiology, manual patch clamp (marker b in Table of Examples); settings: read-out: Nav 1.7 activity
T1 construct: expressed in transfected cells
Description: a.IonWork Quattro data, b=Manual patch clamp data, c=Automated patch clamp data M=Method
Whole-Cell Voltage Clamp Electrophysiology Assay
(§1) Patch-clamp electrophysiology is considered the gold standard technique for investigation of ion channel function and pharmacology. Using this method, sodium channel currents can be measured in cells, which stably (or transiently) express the sodium channel subtype of interest. Application of compounds during such experiments provides a functional measure of the activity and potency of compounds affecting the ion channel of interest.
(§2) Electrophysiological studies can also be performed using the whole cell configuration of the standard manual patch clamp technique as described in the literature (e.g. Pflugers Arch., 1981, 391(2), 85-100). In this assay, cells that express the voltage-gated sodium channel protein of interest are exposed to the drugs by conventional microperfusion systems, or by a home-built perfusion system. A suitable voltage stimulus protocol is used to activate the voltage-gated sodium channels.
(§3) A suitable voltage stimulus protocol is used to activate voltage-gated sodium channel proteins of interest. A typical stimulus protocol may consist of sweeps of sequential voltage pulses starting from a holding potential (i.e. −65 mV), to a more positive and depolarising test pulse potential (i.e. −10 mV) and finally to a more negative and hyperpolarising potential (i.e. −100 mV). According to the biophysics of the voltage-gated ion channel of interest and interest in channel configuration the voltages and durations of the pulses as well as the overall frequency of sweeps applied might vary. Accordingly, a stimulus protocol was designed to assess compounds due to their potential to block NaV1.7 channels primarily in inactivated state. Selectivity over other voltage-gated sodium channel members was assessed by protocols that reflect the native function of the channels (i.e. heart rate or firing of neurons).
(§4) Electrophysiological studies can also be performed using the whole cell configuration of the standard manual patch clamp technique as described in the literature (e.g. Pflugers Arch., 1981, 391(2), 85-100). In this assay, cells that express the human voltage-gated sodium channel protein of interest are exposed to the drugs by conventional microperfusion systems, or by a home-built perfusion system. A suitable voltage stimulus protocol is used to activate the voltage-gated sodium channels. A suitable voltage stimulus protocol may consist of sequential voltage pulses from a holding potential, each first hyperpolarizing the cell, then depolarizing the channels for a brief period. A particularly suitable holding potential may be a voltage allowing a fraction of channels to remain in an inactivated state, like −60 mV. A suitable hyperpolarizing voltage and duration may be −120 mV for 100 ms, and depolarization voltage and duration may be −20 mV for 25 ms, and a suitable frequency of pulses may be 0.1 Hz, but may also have other parameters. Accordingly, a stimulus protocol was designed to assess compounds due to their potential to block NaV1.7 channels primarily in inactivated state. Selectivity over other voltage-gated sodium channel members was assessed by protocols that reflect the native function of the channels (i.e. heart rate or firing of neurons).

[2] = biological target: T2, Nav1.5 (Homo sapiens, UniProt Q14524); assay: Inhibition of Nav1.5 as measured using manual patch clamp
T2 construct: expressed in transfected cells
Description: as §1, §2, §3, §4
Inhibition of Nav1.5 by Compounds of formula (I) as measured using manual patch clamp

[3] = biological target: T1, Nav 1.7; assay: Whole-cell voltage clamp electrophysiology, automated patch clamp (marker c in Table of Examples); settings: marker c: Automated patch clamp data; read-out: Nav 1.7 activity
Summary of the method: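 A voltage protocol weighted toward inactivated-state block was used to test compounds on stably expressing cells, with pulses from −65 mV holding to −10 mV test and −100 mV. Currents came from whole-cell automated patch-clamp recordings, either IonWorks Quattro or other automated instruments, usually in perforated-patch mode.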

[4] = marker b: Manual patch clamp data
[5] = marker b = Manual patch clamp data

T1 sequence (Q15858 whole entry): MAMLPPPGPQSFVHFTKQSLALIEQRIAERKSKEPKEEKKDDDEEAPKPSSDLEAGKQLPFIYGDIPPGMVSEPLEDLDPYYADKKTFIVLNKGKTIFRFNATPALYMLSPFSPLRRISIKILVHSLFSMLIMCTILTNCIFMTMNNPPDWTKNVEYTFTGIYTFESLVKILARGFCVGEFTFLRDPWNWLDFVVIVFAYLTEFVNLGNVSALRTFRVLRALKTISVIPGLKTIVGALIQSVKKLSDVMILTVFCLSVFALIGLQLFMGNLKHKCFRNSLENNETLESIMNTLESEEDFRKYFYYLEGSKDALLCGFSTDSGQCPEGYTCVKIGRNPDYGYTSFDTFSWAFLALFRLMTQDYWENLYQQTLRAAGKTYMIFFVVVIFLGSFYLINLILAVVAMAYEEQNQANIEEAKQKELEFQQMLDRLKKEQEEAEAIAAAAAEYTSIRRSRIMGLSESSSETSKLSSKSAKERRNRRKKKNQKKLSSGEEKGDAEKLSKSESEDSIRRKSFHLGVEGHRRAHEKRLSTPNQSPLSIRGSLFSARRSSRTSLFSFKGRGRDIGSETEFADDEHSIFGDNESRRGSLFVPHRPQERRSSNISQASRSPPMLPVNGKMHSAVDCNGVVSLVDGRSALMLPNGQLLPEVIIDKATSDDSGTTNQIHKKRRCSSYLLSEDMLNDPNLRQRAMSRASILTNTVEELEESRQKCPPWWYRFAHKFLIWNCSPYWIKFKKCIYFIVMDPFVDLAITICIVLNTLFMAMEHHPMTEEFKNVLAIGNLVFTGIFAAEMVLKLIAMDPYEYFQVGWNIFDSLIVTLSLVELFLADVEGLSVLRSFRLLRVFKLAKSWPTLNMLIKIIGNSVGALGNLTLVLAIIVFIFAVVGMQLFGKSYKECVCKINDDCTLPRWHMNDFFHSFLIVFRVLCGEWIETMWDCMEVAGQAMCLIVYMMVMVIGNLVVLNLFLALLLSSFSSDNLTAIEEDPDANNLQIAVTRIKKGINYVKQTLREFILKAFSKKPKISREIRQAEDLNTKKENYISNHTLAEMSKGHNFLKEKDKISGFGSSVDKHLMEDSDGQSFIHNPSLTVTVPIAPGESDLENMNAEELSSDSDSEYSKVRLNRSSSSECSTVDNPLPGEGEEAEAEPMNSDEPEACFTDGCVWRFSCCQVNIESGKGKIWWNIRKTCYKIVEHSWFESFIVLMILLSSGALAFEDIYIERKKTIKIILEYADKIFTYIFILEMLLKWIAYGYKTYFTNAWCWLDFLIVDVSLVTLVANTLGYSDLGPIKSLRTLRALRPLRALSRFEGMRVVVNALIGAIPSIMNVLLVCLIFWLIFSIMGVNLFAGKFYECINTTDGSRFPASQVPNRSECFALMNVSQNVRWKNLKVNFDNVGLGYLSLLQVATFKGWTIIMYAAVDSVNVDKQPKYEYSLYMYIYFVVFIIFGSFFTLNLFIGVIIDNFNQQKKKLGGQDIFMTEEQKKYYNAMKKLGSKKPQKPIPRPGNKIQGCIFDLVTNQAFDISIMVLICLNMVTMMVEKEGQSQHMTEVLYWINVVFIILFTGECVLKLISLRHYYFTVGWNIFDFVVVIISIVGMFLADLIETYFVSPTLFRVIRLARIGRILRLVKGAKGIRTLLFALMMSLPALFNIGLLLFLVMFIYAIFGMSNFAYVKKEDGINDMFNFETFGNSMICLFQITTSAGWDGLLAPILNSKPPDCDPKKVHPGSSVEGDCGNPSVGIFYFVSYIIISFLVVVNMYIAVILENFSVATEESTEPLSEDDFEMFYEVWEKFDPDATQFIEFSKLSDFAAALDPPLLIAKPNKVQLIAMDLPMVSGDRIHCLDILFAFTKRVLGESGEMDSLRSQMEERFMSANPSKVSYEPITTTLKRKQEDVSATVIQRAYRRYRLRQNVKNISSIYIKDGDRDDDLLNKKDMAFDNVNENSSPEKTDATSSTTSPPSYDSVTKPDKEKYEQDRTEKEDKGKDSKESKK
T2 sequence (Q14524 whole entry): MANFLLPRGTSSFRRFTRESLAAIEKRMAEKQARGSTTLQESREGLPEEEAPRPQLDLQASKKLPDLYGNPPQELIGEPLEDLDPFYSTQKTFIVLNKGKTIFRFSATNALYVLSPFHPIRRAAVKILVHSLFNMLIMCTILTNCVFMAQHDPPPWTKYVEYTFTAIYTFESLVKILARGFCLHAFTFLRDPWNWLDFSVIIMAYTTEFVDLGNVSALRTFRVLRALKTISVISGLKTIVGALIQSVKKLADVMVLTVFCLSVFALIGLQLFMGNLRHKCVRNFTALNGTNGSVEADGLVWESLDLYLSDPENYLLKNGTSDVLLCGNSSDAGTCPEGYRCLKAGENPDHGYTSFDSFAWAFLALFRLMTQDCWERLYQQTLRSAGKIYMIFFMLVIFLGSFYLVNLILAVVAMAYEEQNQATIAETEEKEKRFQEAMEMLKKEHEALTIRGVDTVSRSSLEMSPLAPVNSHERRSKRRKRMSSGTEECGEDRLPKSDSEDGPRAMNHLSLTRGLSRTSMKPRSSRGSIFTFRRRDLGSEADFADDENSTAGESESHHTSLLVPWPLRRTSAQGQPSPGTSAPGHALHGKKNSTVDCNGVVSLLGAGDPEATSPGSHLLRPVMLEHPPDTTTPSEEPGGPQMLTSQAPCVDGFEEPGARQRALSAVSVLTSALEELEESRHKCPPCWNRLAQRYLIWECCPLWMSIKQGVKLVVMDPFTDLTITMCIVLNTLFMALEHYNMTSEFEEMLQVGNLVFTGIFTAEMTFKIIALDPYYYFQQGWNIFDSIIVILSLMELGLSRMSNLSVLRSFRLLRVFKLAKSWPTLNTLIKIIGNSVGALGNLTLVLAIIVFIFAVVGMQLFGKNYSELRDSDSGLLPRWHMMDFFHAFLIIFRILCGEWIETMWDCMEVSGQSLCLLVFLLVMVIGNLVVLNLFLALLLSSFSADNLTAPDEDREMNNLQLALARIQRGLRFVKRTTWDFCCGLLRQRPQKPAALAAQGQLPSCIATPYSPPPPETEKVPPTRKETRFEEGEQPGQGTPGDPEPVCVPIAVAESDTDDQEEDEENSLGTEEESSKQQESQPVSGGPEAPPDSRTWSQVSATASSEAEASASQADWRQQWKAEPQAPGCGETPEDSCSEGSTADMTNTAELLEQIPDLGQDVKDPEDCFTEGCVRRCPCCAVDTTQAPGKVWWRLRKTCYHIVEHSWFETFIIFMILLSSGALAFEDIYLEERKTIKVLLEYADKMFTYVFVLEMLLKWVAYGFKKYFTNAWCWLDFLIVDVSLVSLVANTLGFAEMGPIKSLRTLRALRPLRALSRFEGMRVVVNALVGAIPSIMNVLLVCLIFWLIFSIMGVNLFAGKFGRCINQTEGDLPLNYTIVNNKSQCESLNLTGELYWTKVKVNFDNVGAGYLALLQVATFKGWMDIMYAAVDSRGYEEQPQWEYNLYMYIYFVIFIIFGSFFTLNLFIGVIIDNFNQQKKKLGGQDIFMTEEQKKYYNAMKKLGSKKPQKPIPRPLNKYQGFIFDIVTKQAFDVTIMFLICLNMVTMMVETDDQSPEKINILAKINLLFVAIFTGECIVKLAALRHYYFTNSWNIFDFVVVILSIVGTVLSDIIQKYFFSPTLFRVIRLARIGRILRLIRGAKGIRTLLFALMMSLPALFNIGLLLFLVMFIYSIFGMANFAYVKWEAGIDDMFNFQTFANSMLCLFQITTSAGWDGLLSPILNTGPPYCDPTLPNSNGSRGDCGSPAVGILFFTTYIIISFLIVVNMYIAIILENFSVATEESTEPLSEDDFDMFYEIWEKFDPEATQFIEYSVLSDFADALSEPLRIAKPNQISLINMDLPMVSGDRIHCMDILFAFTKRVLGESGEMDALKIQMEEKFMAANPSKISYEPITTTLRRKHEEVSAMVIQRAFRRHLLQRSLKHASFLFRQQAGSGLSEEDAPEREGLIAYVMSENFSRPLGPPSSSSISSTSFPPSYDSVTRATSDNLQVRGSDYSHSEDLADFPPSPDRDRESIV

Structure (SMILES)	pIC50 [1, 4]	pIC50 [2]	further results
CN(c1nc(N)nc(-c2noc(-c3ccco3)n2)n1)c1cc(Cl)ccc1F [Example 103, N-(5-Chloro-2-fluoro-phenyl)-6-(5-furan-2-yl-[1,2,4]oxadiazol-3-yl)-N-methyl-[1,3,5]triazine-2,4-diamine]	7.38	6.67	–
CCN(c1ccccc1)c1nc(N)nc(-c2noc(-c3ccco3)n2)n1 [Example 21, N-Ethyl-6-(5-furan-2-yl-[1,2,4]oxadiazol-3-yl)-N-phenyl-[1,3,5]triazine-2,4-diamine]	6.60	5.69	–
COc1ccccc1-c1nc(-c2nc(N)nc(N(C)c3cccc(Cl)c3)n2)no1 [Example 100, N-(3-Chloro-phenyl)-6-[5-(2-methoxy-phenyl)-[1,2,4]oxadiazol-3-yl]-N-methyl-[1,3,5]triazine-2,4-diamine]	–	6.90	pIC50 [3]: 6.93
CN(c1cccc(F)c1)c1nc(N)nc(-c2noc(-c3ccccc3Cl)n2)n1 [Example 86, 6-[5-(2-Chloro-phenyl)-[1,2,4]oxadiazol-3-yl]-N-(3-fluoro-phenyl)-N-methyl-[1,3,5]triazine-2,4-diamine]	6.90	6.52	–
CCN(c1ccccc1)c1nc(N)nc(-c2noc(-c3ccccc3OC)n2)n1 [Example 95, N-Ethyl-6-[5-(2-methoxy-phenyl)-[1,2,4]oxadiazol-3-yl]-N-phenyl-[1,3,5]triazine-2,4-diamine]	7.34	5.43	–
Cc1cccc(Nc2nc(N)nc(-c3noc(-c4ccco4)n3)n2)c1F [Example 112, N-(2-Fluoro-3-methyl-phenyl)-6-(5-furan-2-yl-[1,2,4]oxadiazol-3-yl)-[1,3,5]triazine-2,4-diamine]	7.06	–	–
CN(c1ccccc1)c1nc(N)nc(-c2noc(-c3ccc(OC4CCCC4)nc3)n2)n1 [Example 13, 6-[5-(6-Cyclopentoxy-pyridin-3-yl)-[1,2,4]oxadiazol-3-yl]-N-methyl-N-phenyl-[1,3,5]triazine-2,4-diamine]	8.40	–	–
Nc1nc(Nc2cc(Cl)ccc2F)nc(-c2noc(-c3ccco3)n2)n1 [Example 108, N-(5-Chloro-2-fluoro-phenyl)-6-(5-furan-2-yl-[1,2,4]oxadiazol-3-yl)-[1,3,5]triazine-2,4-diamine]	6.63	–	–
Nc1nc(Nc2ccccc2)nc(-c2noc(-c3ccc(COCC(F)(F)F)nc3)n2)n1 [Example 303, 2-N-phenyl-6-(5-{6-[(2,2,2-trifluoroethoxy)methyl]pyridin-3-yl}-1,2,4-oxadiazol-3-yl)-1,3,5-triazine-2,4-diamine]	–	–	pIC50 [1, 5]: 7.62
CN(c1cccc(F)c1)c1nc(N)nc(-c2noc(-c3ccco3)n2)n1 [Example 15, N-(3-Fluoro-phenyl)-6-(5-furan-2-yl-[1,2,4]oxadiazol-3-yl)-N-methyl-[1,3,5]triazine-2,4-diamine]	6.82	–	–
CN(c1ccccc1)c1nc(N)nc(-c2noc(-c3ccc([S+]([O-])CC(F)(F)F)nc3)n2)n1 (centres unmarked) [Example 320, 2-N-methyl-2-N-phenyl-6-(5-{6-[(2,2,2-trifluoroethane)sulfinyl]pyridin-3-yl}-1,2,4-oxadiazol-3-yl)-1,3,5-triazine-2,4-diamine]	–	–	pIC50 [1, 5]: 6.56
CN(c1ccccc1)c1nc(N)nc(-c2noc(N3CC(Oc4ccccc4)C3)n2)n1 [Example 489, 2-N-methyl-6-[5-(3-phenoxyazetidin-1-yl)-1,2,4-oxadiazol-3-yl]-2-N-phenyl-1,3,5-triazine-2,4-diamine]	–	–	pIC50 [1, 5]: 6.90
CN(c1ccccc1)c1nc(N)nc(-c2noc(N3CCC(COCC(F)(F)F)CC3)n2)n1 [Example 167, 2-N-Methyl-2-N-phenyl-6-(5-{4-[(2,2,2-trifluoroethoxy)methyl]piperidin-1-yl}-1,2,4-oxadiazol-3-yl)-1,3,5-triazine-2,4-diamine]	6.63	–	–
COc1ccc(N(C)c2nc(N)nc(-c3noc(-c4ccco4)n3)n2)cc1 [Example 6, 6-(5-Furan-2-yl-[1,2,4]oxadiazol-3-yl)-N-methyl-N-(4-methoxyphenyl)-[1,3,5]triazine-2,4-diamine]	5.71	–	–
CN(c1ccccc1)c1nc(N)nc(-c2noc(N3CCC(OCC(F)(F)F)CC3)n2)n1 [Example 335, 2-N-methyl-2-N-phenyl-6-{5-[4-(2,2,2-trifluoroethoxy)piperidin-1-yl]-1,2,4-oxadiazol-3-yl}-1,3,5-triazine-2,4-diamine]	–	–	pIC50 [1, 5]: 6.15
CN(c1ccc(F)cc1)c1nc(N)nc(-c2noc(-c3ccco3)n2)n1 [Example 16, N-(4-Fluoro-phenyl)-6-(5-furan-2-yl-[1,2,4]oxadiazol-3-yl)-N-methyl-[1,3,5]triazine-2,4-diamine]	6.58	5.98	–
Cc1cccc(-c2nc(-c3nc(N)nc(N(C)c4ccccc4)n3)no2)n1 [Example 271, 2-N-methyl-6-[5-(6-methylpyridin-2-yl)-1,2,4-oxadiazol-3-yl]-2-N-phenyl-1,3,5-triazine-2,4-diamine]	–	–	pIC50 [1, 5]: 6.02
CN(c1nc(N)nc(-c2noc(-c3ccco3)n2)n1)c1cccc(Cl)c1F [Example 106, N-(3-Chloro-2-fluoro-phenyl)-6-(5-furan-2-yl-[1,2,4]oxadiazol-3-yl)-N-methyl-[1,3,5]triazine-2,4-diamine]	7.09	–	–
Nc1nc(-c2noc(-c3ccco3)n2)nc(N(CC(F)(F)F)c2ccccc2)n1 [Example 68, 6-(5-Furan-2-yl-[1,2,4]oxadiazol-3-yl)-N-phenyl-N-(2,2,2-trifluoro-ethyl)-[1,3,5]triazine-2,4-diamine]	–	< 5.00	pIC50 [3]: 6.65
COc1ccccc1-c1nc(-c2nc(N)nc(N(C)c3ccccc3)n2)no1 [Example 25, 6-[5-(2-Methoxy-phenyl)-[1,2,4]oxadiazol-3-yl]-N-methyl-N-phenyl-[1,3,5]triazine-2,4-diamine]	7.33	–	–
CN(c1ccccc1)c1nc(N)nc(-c2noc(-c3ncccn3)n2)n1 [Example 278, 2-N-methyl-2-N-phenyl-6-[5-(pyrimidin-2-yl)-1,2,4-oxadiazol-3-yl]-1,3,5-triazine-2,4-diamine]	–	–	pIC50 [1, 5]: 5.97
COc1cccc(N(C)c2nc(N)nc(-c3noc(-c4ccco4)n3)n2)c1 [Example 5, 6-(5-Furan-2-yl-[1,2,4]oxadiazol-3-yl)-N-methyl-N-(3-methoxyphenyl)-[1,3,5]triazine-2,4-diamine]	6.10	–	–
COc1cccnc1-c1nc(-c2nc(N)nc(N(C)c3ccccc3)n2)no1 [Example 132, 6-[5-(3-Methoxy-2-pyridyl)-[1,2,4]oxadiazol-3-yl]-N-methyl-N-phenyl-[1,3,5]triazine-2,4-diamine]	–	5.58	pIC50 [3]: 6.40
COc1ccc(-c2nc(-c3nc(N)nc(N(C)c4ccccc4)n3)no2)nc1 [Example 118, 6-[5-(5-Methoxy-pyridin-2-yl)-[1,2,4]oxadiazol-3-yl]-N-methyl-N-phenyl-[1,3,5]triazine-2,4-diamine]	–	5.48	pIC50 [3]: 6.53

Continued, in another order:

pIC50 [1, 4]	Structure (SMILES)	pIC50 [2]	further results
6.67	CN(c1ccccc1)c1nc(N)nc(-c2noc(-c3ccco3)n2)n1 [Example 1, 6-(5-Furan-2-yl-[1,2,4]oxadiazol-3-yl)-N-methyl-N-phenyl-[1,3,5]triazine-2,4-diamine]	5.62	–
6.67	CN(c1ccccc1)c1nc(N)nc(-c2noc(-c3cccs3)n2)n1 [Example 11, N-Methyl-N-phenyl-6-(5-thiophen-2-yl-[1,2,4]oxadiazol-3-yl)-[1,3,5]triazine-2,4-diamine]	–	–
7.19	COCCN(c1ccccc1)c1nc(N)nc(-c2noc(-c3ccc(OCC(F)(F)F)nc3)n2)n1 [Example 156, 2-N-(2-Methoxyethyl)-2-N-phenyl-6-{5-[6-(2,2,2-trifluoroethoxy)pyridin-3-yl]-1,2,4-oxadiazol-3-yl}-1,3,5-triazine-2,4-diamine]	–	–
6.04	CN(c1ccccc1)c1nc(N)nc(-c2noc(-c3cncs3)n2)n1 [Example 52, N-Methyl-N-phenyl-6-(5-thiazol-5-yl-[1,2,4]oxadiazol-3-yl)-[1,3,5]triazine-2,4-diamine]	–	–
